Patent US20050282757A1, “Peptide boronic acid compounds useful in anticoagulation” (Trigen Limited, priority 2002, published 2005)

How the values were obtained:
[1] = tested on: dynamic coagulation markers; experiment: Simulated mitral valve repair on hypothermic CPB in dogs (Example 48); assay type: in vivo, beagle dogs; settings: intravenous
Experimental: Following a dose ranging study in conscious dogs, six beagle dogs were placed on CPB and underwent a simulated mitral valve repair. A range of dynamic coagulation markers were measured, including thrombin clotting time (TT), activated partial thromboplastin time (APTT), activated clotting time (ACT), ecarin clotting time (ECT), whole blood thrombin clotting time, platelet counts and function tests. In addition, pre and post-operative echocardiograms and intra-operative blood loss were evaluated. […] By virtue of its predictable anticoagulant efficacy and controlled duration of action, TGN 255 offers potential in on pump and off pump coronary bypass procedures.

[2] = Solubility of TRI 50c monosodium salt at different pH values; assay type: physicochemical
Experimental: It may be desirable to make aqueous solutions of boronic acid drugs for administering them. […] However, a solution with a pH of 9.5 may be unacceptable or undesirable. Accordingly, a pharmaceutically acceptable organic acid may be included in the particulate formulation in an amount selected to reduce the pH to a value at which the solution is more acceptable but at which a solution of drinkable quantity (e.g. about 50 ml to about 150 ml) may be formed by reconstituting the particulate formulation. As the organic acid may be mentioned citric acid, tartaric acid or malic acid, for example. In many instances, citric acid is chosen.
In a first series of experiments, this amount of the salt was dissolved in 50 ml water to form a solution of approximately pH 9.5. Dilute aqueous HCl was added to determine how much the pH could be reduced before precipitation occurred.
In a second series of experiments, the same amount of the salt was dissolved in 150 ml water, and citric acid was added. […] Since acid solutions tend to be more palatable than alkaline ones, and citric acid is a common flavouring agent, this behaviour of the salt is highly beneficial. […] In general, it is contemplated that the boronate will be formulated to form a reconstituted solution having a pH of from 4 to 8, e.g. 4 to 7, optionally 5 to 6.

[3] = Stability assay before and after drying, HPLC-PDA (Example 34); assay type: physicochemical; settings: for Amount: 5 mg in 5 mL
Experimental: An assay of TRI 50c and its sodium and lysine salts before and after drying.
For sample analysis, 5 mg of dried and non-dried material was weighed in a 5 mL volumetric flask and dissolved in 1 mL acetonitrile and filled up with demineralised water to 5 mL.
The quantitative evaluation was performed using an HPLC-PDA method.

thrombin time and APTT = experiment: Intravenous administration in beagle dogs, PK/PD (Example 36); assay type: in vivo; settings: 1.0 mg/kg i.v.; for thrombin time at pharmacodynamic C max: 2 minutes post dose, base line 14.3 seconds, monosodium salt
Experimental: Blood samples were taken into 3.8% tri-sodium citrate (1+8) at pre dose, 2, 5, 10, 20, 30, minutes post dose and then at 1, 2, 3, 4, 6, 8, 12 and 24 hours post dose. Plasma was prepared by centrifugation and frozen at minus 20° C. pending analysis.

[4] = Excretion of administered dose; settings: in vivo
Text: It will be appreciated that such short duration of action (rapid offset of activity) achieved by a boronic acid is well suited for the prevention of thrombosis in intermittent apheresis procedures, and that oral administration is particularly useful in the case of elective intermittent apheresis procedures. In one class of embodiments, the apheresis procedure is haemodialysis (strictly CIHD); in another, the procedure is not haemodialysis.

thrombin time (TT) = experiment: Intravenous administration into humans (Examples 40 and 46); assay type: in vivo
Experimental: The test consisted of three groups, each of six males. From each group 5 men were given the active ingredient and 1 was given a placebo.
Total I.V. administered doses were: • 82 mg (7 mg intravenous bolus (over 30s) followed by an infusion of 25 mg/h for 3 hours). • 130 mg (10 mg intravenous bolus (over 30s) followed by an infusion of 40 mg/h for 3 hours). • 120 mg (by infusion of 40 mg/h for 3 hours). […] Within 30 minutes after cessation of infusion there was a fall to a level at which clinically significant anticoagulation is not expected.

[5] = Comparative storage stability of sodium and calcium salts (Example 49); assay type: physicochemical; settings: for Tri50c (w/w %, LOD corr.): corrected for loss on drying
Text: In both studies the active pharmaceutical ingredient was stored in grip sealed double bags within a PE/PP screw cap closed cylinder.

Plasmin = Plasmin (Homo sapiens, UniProt P00747); experiment: Plasmin inhibition, Method B (Example 52); assay type: biochemical; settings: Plasmin relative to Thrombin
Experimental: 50 μl Plasmin (75 ng/ml in assay buffer) and 20 μl vehicle or compound solution were added to 110 μl assay buffer (100 mM Na orthophosphate (80% Na2HPO4 and 20% NaH2PO4), 200 mM NaCl, 0.5% PEG 6000, 0.02% Na azide, pH 7.5) and incubated for 5 minutes at 37° C.

[6] = dry (1 week in desiccator over phosphorus pentoxide)

Sequence of Plasmin (P00747 581-810 limits assumed, species assumed): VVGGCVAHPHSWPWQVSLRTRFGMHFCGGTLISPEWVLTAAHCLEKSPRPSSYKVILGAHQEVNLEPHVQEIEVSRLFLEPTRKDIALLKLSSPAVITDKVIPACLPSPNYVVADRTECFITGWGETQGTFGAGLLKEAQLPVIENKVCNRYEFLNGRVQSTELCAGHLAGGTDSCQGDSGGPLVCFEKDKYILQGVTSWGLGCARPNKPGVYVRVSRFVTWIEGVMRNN
Sequence of Plasmin (P00747 97-580 limits assumed, species assumed): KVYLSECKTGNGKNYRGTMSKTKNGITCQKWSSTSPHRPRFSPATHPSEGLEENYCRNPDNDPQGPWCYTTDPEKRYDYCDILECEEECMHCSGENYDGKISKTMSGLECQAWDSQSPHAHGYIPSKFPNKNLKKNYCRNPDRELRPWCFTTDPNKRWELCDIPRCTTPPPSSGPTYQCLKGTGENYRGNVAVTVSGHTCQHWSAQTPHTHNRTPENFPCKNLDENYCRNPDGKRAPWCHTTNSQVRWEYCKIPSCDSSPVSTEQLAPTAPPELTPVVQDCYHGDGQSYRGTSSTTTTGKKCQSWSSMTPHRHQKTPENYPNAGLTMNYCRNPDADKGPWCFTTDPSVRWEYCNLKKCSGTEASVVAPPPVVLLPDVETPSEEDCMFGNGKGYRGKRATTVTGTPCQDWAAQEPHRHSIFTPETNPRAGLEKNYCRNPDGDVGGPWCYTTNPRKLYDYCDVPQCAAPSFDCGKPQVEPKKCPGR

## COCCC[C@H](NC(=O)[C@@H]1CCCN1C(=O)[C@@H](Cc1ccccc1)NC(=O)OCc1ccccc1)B(O)O.[Na+] [TRI 50c monosodium salt, Cbz-(R)-Phe-(S)-Pro-(R)-Mpg-B(OH)2 monosodium salt]
[1]
  anticoagulation during bypass and surgery: excellent anticoagulation during bypass and surgery with little bleeding
[2]; pH of about 9.5
  concentration of boronate salt solution that can be formed: up to 600 mg/ml
[2]; salt equivalent to 600 mg TRI 50c in 50 ml water, dilute aqueous HCl added
  pH below which the salt tended to precipitate: below 9
[2]; salt equivalent to 600 mg TRI 50c in 150 ml water, citric acid added
  pH reached before precipitation occurred: 3.7-3.8
[3]; [6]
  Purity: 98.81 % area
  Amount: 1024 µg/mL
[3]; non-dried
  Purity: 98.61 % area
  Amount: 1005.8 µg/mL
Thrombin time and APTT; listed as TRI 50c sodium salt
  thrombin time at pharmacodynamic C max: 154 s
Thrombin time and APTT
  thrombin time at pharmacodynamic C max: 154.4 s
Thrombin time and APTT; one hour post dose
  Thrombin time: 26 s
Thrombin time and APTT; post dose
  elevation in the APTT: 1.3 times
Thrombin time and APTT; total duration of the study
  tolerance: tolerated well with no adverse events
Thrombin time and APTT; two minutes following dosing
  Thrombin clotting time elevation above base line: 10.8 times
Thrombin time and APTT; from 19 seconds
  APTT post dose: 25 s
[4]
  administered dose excreted as TRI 50c species (acid and corresponding boronate species): 14%
Thrombin time (TT); after termination of intravenous administration
  time for plasma concentrations of the active principle to return to tolerably low levels: ≤ 30 min
Thrombin time (TT); i.v. infusion
  time after cessation of infusion to fall to a level at which clinically significant anticoagulation is not expected: ≤ 30 min
Thrombin time (TT); i.v. infusion for 3 hours
  distribution phase, time after the end of infusion: ≤ 30 min
Thrombin time (TT); intravenous infusion
  effect on thrombin time (TT): rapid, dose-related increase in the thrombin time (TT)
Thrombin time (TT); plasma, i.v.
  overall terminal elimination half life: about 4 hours
Thrombin time (TT); single i.v. doses 82, 130, 120 mg
  safety assessments: No clinically significant findings
Thrombin time (TT); study period of 24 hours, any dose
  adverse clinical events: no adverse clinical events of either a general or cardiovascular nature
[5]; T = 0
  Appearance: Powdery
  Color: White
  Tri50c (w/w %): 101.1 w/w %
  Tri50c (w/w %, LOD corr.): 101.5 w/w %
[5]; T = 1, 25° C./60% r.h.
  Appearance: powdery
  Color: white
  Tri50c (w/w %): 99.5 w/w %
  Tri50c (w/w %, LOD corr.): 103.6 w/w %
[5]; T = 1, 40° C./75% r.h.
  Appearance: powdery
  Color: white
  Tri50c (w/w %): 90.3 w/w %
  Tri50c (w/w %, LOD corr.): 94.5 w/w %
[5]; T = 1, −20° C.
  Appearance: powdery
  Color: white
  Tri50c (w/w %): 103.1 w/w %
  Tri50c (w/w %, LOD corr.): 104.3 w/w %
[5]; T = 3, 25° C./60% r.h.
  Appearance: powdery
  Color: white
  Tri50c (w/w %): 95.3 w/w %
  Tri50c (w/w %, LOD corr.): 100.4 w/w %
[5]; T = 3, 40° C./75% r.h.
  Appearance: viscous
  Color: brown
  Tri50c (w/w %): 48.6 w/w %
  Tri50c (w/w %, LOD corr.): 52.2 w/w %
[5]; T = 3, −20° C.
  Appearance: powdery
  Color: white
  Tri50c (w/w %): 102.5 w/w %
[5]; T = 12, 25° C./60% r.h.
  Tri50c (w/w %): 70.5 w/w %
  Tri50c (w/w %, LOD corr.): 71.2 w/w %

## COCCC[C@H](NC(=O)[C@@H]1CCCN1C(=O)[C@@H](Cc1ccc(F)cc1)NC(=O)OCc1ccccc1)B([O-])O.[Na+] [TRI 50f]
Plasmin
  Selectivity: >1000
